Source: article PMC12530851, “Design, synthesis, and apoptotic antiproliferative activity of novel dihydropyrimidine-5-carbonitrile/1,2,4-oxadiazole hybrids as dual EGFR/VEGFR-2 inhibitors endowed with antioxidant activity” (RSC Advances, 2025)

Assays:
[1] = target: VEGFR-2 (Homo sapiens, UniProt P35968); assay: VEGFR-2 inhibitory assay
Method: The majority of signals detected by antiphosphotyrosine antibody were from EGFR because the enzyme preparation contained low impurities.
Prepare all the solutions using autoclaved, deionized water and analytical grade reagents. Prepare
and store all the reagents at room temperature (unless indicated otherwise). EDTA solution (0.5
M, pH 8.0): add 95 mL ultra-pure water to 14.612 g EDTA, adjust the pH to 8.0 using NaOH
solution, add 5 mL ultra-pure water; 1×Kinase Assay Buffer: add 25 mL HEPES solution (1 M),
water, adjust pH to 7.5 and constant volume to 500 mL using ultrapure water; 4×Stop solution (40
mM): Mix 0.8 mL of the foregoing EDTA solution, 1 mL 10×Detection Buffer and 8.2 mL ultra-
pure water; 1×Detection Buffer: Mix 1 mL 10×Detection Buffer with 9 mL water; 4×VEGFR
μM) was added to 624 μL 1×Kinase Assay Buffer and mixed; 4×ULight™-labeled JAK1
concentration 5 μM) was added to 576 μL 1×Kinase Assay Buffer and mixed; 4×ATP Solution
2×substrate/ATP Mix: 560 μL foregoing 4×ULight™-labeled JAK1 and 560 μL 4×ATP solution
and mixed (prepared before use). The assays used an ULight-labeled peptide substrate and a
Europium-W1024-labeled antiphosphotyrosine antibody. The VEGFR-2 was purchased from
Carna Biosciences, Inc. (New York, USA). The 384-well plates were obtained from PerkinElmer.
Compounds were dissolved in DMSO and diluted to 11 concentrations at a tripling rate from 2.500
5 μL 2×VEGFR-2 kinase solution (0.5 nM)
was added to 384-well plates homogeneous mixing and pre-reaction at room temperature for 30
min. Next, 2.5 μL 4×Ultra ULightTM-JAK-1(Tyr1023) Peptide (200 nM)/ATP (40 μM) was
added to the corresponding wells of a 384-well plate. Negative control: 2.5 μL/well 4×substrate/ATP mixture and 7.5 μL 1×kinase assay buffer in 384-well plate well. Positive control:
μL/well 2×VEGFR-2 kinase solution was added to the 384-well plate, The final concentration of DMSO in the mixing system was 4%. After incubation at room temperature and dark for 60 min, 5 μL 4×stop solution was added to corresponding wells to react for 5 min and then 5 μL 4×detection mix was added to the corresponding wells of a 384-well plate. The mixture was centrifugally mixed and stayed for 60 min at room temperature for color development. The plate
was read using an Envision plate reader. The inhibition rate (%) = (positive well reading-
compound well reading)/(positive well reading-negative well reading)×100. The corresponding IC50 values were calculated using GraphPad Prism 5.0.

[2] = Cell viability assay (MTT) on normal MCF-10A cells; type: cell-based; details: human, MCF-10A mammary gland epithelial cells (normal cell line), MCF-10A normal cells, four-day incubation
Method: The impact of novel compounds 10a–l on the viability of a normal human cell line, specifically human mammary gland epithelial cells (MCF-10A), was assessed to ascertain the safety of the newly synthesized compounds. The MTT test was employed to assess the cell viability of the novel compounds after a four-day incubation with MCF-10A cells.[29,37] Refer to Appendix A for more experimental details.
The effect of new compounds 10a–l on the viability of a normal human cell line, namely human mammary gland epithelial cells (MCF-10A), was evaluated to determine the safety of the newly synthesized compounds.
4.2. Biological evaluation
4.2.1 Cell Viability assay (MTT assay)
MTT assay was performed to investigate the effect of the synthesized compounds on mammary epithelial cells (MCF-10A). The cells were propagated in medium consisting of Ham's F-12 medium/ Dulbecco's modified Eagle's medium (DMEM) (1:1) supplemented with 10% foetal calf serum, 2 mM glutamine, insulin (10 μg/mL), hydrocortisone (500 ng/mL) and epidermal growth factor (20 ng/mL). Trypsin ethylenediamine tetra acetic acid (EDTA) was used to passage the cells after every 2-3 days. 96-well flat-bottomed cell culture plates were used to seed the cells at a density of 10^4 cells mL-1. The medium was aspirated from all the wells of culture plates after 24 h followed by the addition of synthesized compounds (in 200 μL medium to yield a final concentration of 0.1% (v/v) dimethyl sulfoxide) into individual wells of the plates. Four wells were designated to a single compound. The plates were allowed to incubate at 37°C for 96 h. Afterwards, the medium was aspirated and 3-[4,5-dimethylthiazol-2-yl]-2,5-diphenyltetrazolium bromide (MTT) (0.4 mg/mL) in medium was added to each well and subsequently incubated for 3 h. The medium was aspirated and 150 μL dimethyl sulfoxide (DMSO) was added to each well. The plates were vortexed followed by the measurement of absorbance at 540 nm on a microplate reader. […]

[3] = system: Panc-1 (pancreatic cancer); assay: Antiproliferative assay, Panc-1; type: cell-based; details: Homo sapiens; Panc-1 pancreatic cancer cells; read-out: Antiproliferative activity IC50 ± SEM, Panc-1
Description: (§1) The dose–response experiments established the IC50 values for the new compounds. The given findings were obtained from at least two distinct studies, each comprising three repeats per concentration. Appendix A (SI File) provides experimental details.[38,39]
(§2) The MTT assay[43] was utilized to assess the antiproliferative effects of compounds 10a–l on four human cancer cell lines: HT-29 (colon cancer), Panc-1 (pancreatic cancer), A-549 (lung cancer), and MCF-7 (breast cancer). […]
(§3) 4.2.2. Assay for antiproliferative effect
(§4) To explore the antiproliferative potential of compounds propidium iodide fluorescence assay was performed using different cell lines such as Panc-1 (pancreas cancer cell line), MCF-7 (breast cancer cell line), HT-29 (colon cancer cell line) and A-549 (epithelial cancer cell line), respectively. To calculate the total nuclear DNA, a fluorescent dye (propidium iodide, PI) is used which can attach to the DNA, thus offering a quick and precise technique. PI cannot pass through the cell membrane and its signal intensity can be considered as directly proportional to quantity of cellular DNA. Cells whose cell membranes are damaged or have changed permeability are counted as dead ones. The assay was performed by seeding the cells of different cell lines at a density of 3000-7500 cells/well (in 200μl medium) in culture plates followed by incubation for 24h at 37 °C in humidified 5%CO2/95% air atmospheric conditions. The medium was removed; the compounds were added to the plates at 10 μM concentrations (in 0.1% DMSO) in triplicates, followed by incubation for 48h. DMSO (0.1%) was used as control. After incubation, medium was removed followed by the addition of PI (25 μl, 50μg/mL in water/medium) to each well of the plates. At - 80 °C, the plates were allowed to freeze for 24 h, followed by thawing at 25 °C. A fluorometer (Polar-Star BMG Tech) was used to record the readings at excitation and emission wavelengths of 530 and 620 nm for each well. The percentage cytotoxicity of compounds was calculated using […]
(§5) Where ATC= Absorbance of treated cells and AC= Absorbance of control. Erlotinib was used as positive control in the assay. […]

[4] = system: MCF-7 (breast cancer); assay: Antiproliferative assay, MCF-7; type: cell-based, human; details: for IC50: Homo sapiens, MCF7, MCF-7 breast cancer cells, read-out: Antiproliferative activity IC50 ± SEM, MCF-7
Description: as §1, §2, §3, §4, §5

[5] = target: EGFR (Homo sapiens, UniProt P00533); assay: EGFR inhibitory assay (EGFR-TK test); details: for EGFR inhibitory potency relative to erlotinib: more potent than erlotinib
Method: Baculoviral expression vectors including pBlueBacHis2B and pFASTBacHTc were used
5ʹ upstream to the EGFR sequence comprised a sequence that encoded (His)6. Sf-9 cells were infected for 72h for protein expression. The pellets of Sf-9 cells were solubilized in a buffer containing sodium vanadate (100 μM), aprotinin (10 μg/mL), triton (1%), HEPES
buffer(50mM), ammonium molybdate (10 μM), benzamidine HCl (16 μg/mL), NaCl (10 mM),leupeptin (10 μg/mL) and pepstatin (10 μg/mL) at 0°C for 20 min at pH 7.4, followed by centrifugation for 20 min. To eliminate the nonspecifically bound material, a Ni-NTA super flow packed column was used to pass through and wash the crude extract supernatant first with 10mM and then with 100 mM imidazole. Histidine-linked proteins were first eluted with 250 and then with 500 mM imidazole subsequent to dialysis against NaCl (50 mM), HEPES (20 mM), glycerol (10%) and 1 μg/mL each of aprotinin, leupeptin and pepstatin for 120 min. The purification was performed either at 4 °C or on ice. To record autophosphorylation level, EGFR kinase assay was carried out on the basis of DELFIA/Time-Resolved Fluorometry. The compounds were first
dissolved in DMSO absolute, subsequent to dilution to appropriate concentration using HEPES
(25 mM) at pH 7.4. Each compound (10 μL) was incubated with recombinant enzyme (10 μL, 5
ng for EGFR, 1:80 dilution in 100 mM HEPES) for 10 min at 25 °C, subsequent to the addition of
5X buffer (10 μL, containing 2 mM MnCl2, 100 μM Na3VO4, 20 mM HEPES and 1 mM DTT)
and ATP-MgCl2 (20 μL, containing 0.1 mM ATP and 50 mM MgCl2) and incubation for 1h. The
negative and positive controls were included in each plate by the incubation of enzyme either with
or without ATP-MgCl2. The liquid was removed after incubation and the plates were washed
thrice using a wash buffer. The Europium-tagged antiphosphotyrosine antibody (75 μL, 400 ng)
was added to each well followed by incubation of 1h and then washing of the plates using buffer.
The enhancement solution was added to each well and the signal was recorded at excitation and
The autophosphorylation percentage inhibition by compounds was calculated using the following equation:
calculated. The majority of signals detected by antiphosphotyrosine antibody were from EGFR because the enzyme preparation contained low impurities.

[6] = Cytotoxicity against normal cell line (MTT); type: cell-based, human; details: WI-38 normal human diploid cells; normal human diploid WI-38 cells, MTT
[7] = system: normal human diploid cell line (WI-38); assay: Cytotoxicity against normal cell line (MTT); type: cell-based; details: for Selectivity index (SI), A-549: WI-38 vs A-549; for Selectivity index (SI), HT-29: WI-38 vs HT-29; for Selectivity index (SI), MCF-7: WI-38 vs MCF-7; for Selectivity index (SI), Panc-1: WI-38 vs Panc-1
[8] = system: four human cancer cell lines (A-549, MCF-7, Panc-1, HT-29); assay: Antiproliferative assay, average over four cancer cell lines; type: cell-based; details: for GI50: Homo sapiens, average IC50 across A-549, MCF-7, Panc-1, HT-29
Method: The given findings were obtained from at least two distinct studies, each comprising three repeats per concentration. Appendix A (SI File) provides experimental details.[38,39] […]
as §3
To explore the antiproliferative potential of compounds propidium iodide fluorescence assay was performed using different cell lines such as Panc-1 (pancreas cancer cell line), MCF-7 (breast […]
respectively. To calculate the total nuclear DNA, a fluorescent dye (propidium iodide, PI) is used which can attach to the DNA, thus offering a quick and precise technique. PI cannot pass through the cell membrane and its signal intensity can be considered as directly proportional to quantity of cellular DNA. Cells whose cell membranes are damaged or have changed permeability are counted as dead ones. The assay was performed by seeding the cells of different cell lines at a density of 3000-7500 cells/well (in 200μl medium) in culture plates followed by incubation for 24h at 37 °C […]
The medium was removed; the compounds were added to the plates at 10 μM concentrations (in 0.1% DMSO) in triplicates, followed by incubation for 48h. DMSO (0.1%) was used as control. After incubation, medium was removed followed by the addition of PI (25 μl, 50μg/mL in water/medium) to each well of the plates. At - 80 °C, the plates were allowed to freeze for 24 h, followed by thawing at 25 °C. A fluorometer (Polar-Star BMG Tech) was used to record the readings at excitation and emission wavelengths of 530 and 620 nm for each well. The percentage cytotoxicity of compounds was calculated using […]
Where ATC= Absorbance of treated cells and AC= Absorbance of control. […]
positive control in the assay. […]

Sequence of EGFR (P00533 669-1210): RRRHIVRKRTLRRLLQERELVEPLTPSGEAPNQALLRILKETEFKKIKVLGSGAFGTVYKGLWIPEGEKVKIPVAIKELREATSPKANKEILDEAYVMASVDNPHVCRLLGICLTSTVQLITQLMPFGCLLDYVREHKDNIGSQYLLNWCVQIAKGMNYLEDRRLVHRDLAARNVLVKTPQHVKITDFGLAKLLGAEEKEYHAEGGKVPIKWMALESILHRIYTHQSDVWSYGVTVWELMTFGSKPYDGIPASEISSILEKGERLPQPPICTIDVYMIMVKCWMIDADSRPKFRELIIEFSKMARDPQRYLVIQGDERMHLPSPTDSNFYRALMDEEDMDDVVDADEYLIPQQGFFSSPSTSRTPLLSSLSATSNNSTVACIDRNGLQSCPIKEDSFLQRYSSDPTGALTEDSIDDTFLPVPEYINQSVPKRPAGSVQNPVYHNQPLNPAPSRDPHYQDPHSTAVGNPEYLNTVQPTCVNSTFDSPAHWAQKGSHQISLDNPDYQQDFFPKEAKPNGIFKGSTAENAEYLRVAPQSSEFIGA
Sequence of VEGFR-2 (P35968 20-1356): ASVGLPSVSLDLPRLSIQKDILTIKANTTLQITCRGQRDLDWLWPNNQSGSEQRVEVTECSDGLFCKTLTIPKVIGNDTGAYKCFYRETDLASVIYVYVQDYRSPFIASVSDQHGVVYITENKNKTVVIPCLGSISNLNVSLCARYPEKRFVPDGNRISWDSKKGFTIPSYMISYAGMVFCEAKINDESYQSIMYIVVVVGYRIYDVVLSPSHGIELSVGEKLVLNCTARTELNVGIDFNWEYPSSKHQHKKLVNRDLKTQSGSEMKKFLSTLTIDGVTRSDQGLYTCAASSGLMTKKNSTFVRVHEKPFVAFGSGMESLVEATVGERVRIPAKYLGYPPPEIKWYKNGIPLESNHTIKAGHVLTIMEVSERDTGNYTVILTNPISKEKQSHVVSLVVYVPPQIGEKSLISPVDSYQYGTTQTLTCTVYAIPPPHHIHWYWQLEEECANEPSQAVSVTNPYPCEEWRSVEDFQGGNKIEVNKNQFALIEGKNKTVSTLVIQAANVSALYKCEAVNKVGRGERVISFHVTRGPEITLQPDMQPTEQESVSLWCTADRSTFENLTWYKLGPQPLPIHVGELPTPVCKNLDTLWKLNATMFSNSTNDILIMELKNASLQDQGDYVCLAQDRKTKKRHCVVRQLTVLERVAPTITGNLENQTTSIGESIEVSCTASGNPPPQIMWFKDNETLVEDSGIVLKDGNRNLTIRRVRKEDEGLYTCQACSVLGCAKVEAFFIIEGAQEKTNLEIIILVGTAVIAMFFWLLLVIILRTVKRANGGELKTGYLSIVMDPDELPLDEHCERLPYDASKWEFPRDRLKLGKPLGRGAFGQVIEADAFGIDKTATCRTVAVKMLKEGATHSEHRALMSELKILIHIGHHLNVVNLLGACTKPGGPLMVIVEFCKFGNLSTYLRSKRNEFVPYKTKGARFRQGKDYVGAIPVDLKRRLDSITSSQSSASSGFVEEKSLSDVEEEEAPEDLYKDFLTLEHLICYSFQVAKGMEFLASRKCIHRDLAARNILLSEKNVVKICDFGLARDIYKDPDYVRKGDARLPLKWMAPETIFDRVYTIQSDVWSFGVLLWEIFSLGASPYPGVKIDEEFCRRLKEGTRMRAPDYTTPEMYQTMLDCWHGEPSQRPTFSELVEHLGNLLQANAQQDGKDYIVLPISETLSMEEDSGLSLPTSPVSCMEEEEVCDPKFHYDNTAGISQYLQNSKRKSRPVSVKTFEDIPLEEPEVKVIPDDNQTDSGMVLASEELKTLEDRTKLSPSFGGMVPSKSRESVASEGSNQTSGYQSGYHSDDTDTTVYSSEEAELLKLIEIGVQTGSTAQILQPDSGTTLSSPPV

| IC50 [1] [nM] | IC50 [3] [nM] | IC50 [4] [nM] | IC50 [5] [nM] | EGFR inhibitory potency relative to erlotinib [5] [fold] | GI50 [8] [nM] | SMILES | viability at 96 h, 50 µM [2] [%] | Potency relative to erlotinib, MCF-7 ([4]; more potent than erlotinib) | IC50 [6] [nM] | Selectivity index (SI), A-549 [7] | Selectivity index (SI), HT-29 [7] | Selectivity index (SI), MCF-7 [7] | Selectivity index (SI), Panc-1 [7] | Potency relative to erlotinib, the other three cell lines ([8]; A-549, Panc-1, HT-29, greater potency than erlotinib) [fold] |
| --- | --- | --- | --- | --- | --- | --- | --- | --- | --- | --- | --- | --- | --- | --- |
| 21 ± 1 | 22 ± 1 | 20 ± 1 | 57 ± 3 | 1.4 | 22 | COc1ccc(-c2nc(SCc3nc(-c4ccc(Cl)cc4)no3)[nH]c(=O)c2C#N)cc1 [Compound 10k, 2-(((3-(4-Chlorophenyl)-1,2,4-oxadiazol-5-yl)methyl)thio)-4-(4-methoxyphenyl)-6-oxo-1,6-dihydropyrimidine-5-carbonitrile] | 90 | twice as potent | > 200 | > 8.0 | > 8.0 | > 10.0 | > 9.0 | 1.3 |
| 26 ± 1 | 26 ± 1 | 22 ± 1 | 61 ± 4 | 1.3 | 26 | COc1ccc(-c2noc(CSc3nc(-c4ccc(OC)cc4)c(C#N)c(=O)[nH]3)n2)cc1 [Compound 10l, 2-(((3-(4-Methoxyphenyl)-1,2,4-oxadiazol-5-yl)methyl)thio)-4-(4-methoxyphenyl)-6-oxo-1,6-dihydropyrimidine-5-carbonitrile] | 91 | – | > 200 | > 7.0 | > 7.0 | > 9.0 | > 7.0 | – |
